Measurements as given in PMC10884005, “Euglena’s atypical respiratory chain adapts to the discoidal cristae and flexible metabolism” (Nature Communications, 2024).

Experiments:
S. scrofa CI = target: T1, S. scrofa CI (Sus scrofa, UniProt A0A4X1SZP7); assay: NADH oxidation at […] nm; type: biochemical; details: 200 μM DQ, 300 μM NADH, pH 7.4; thermal deactivation assay
T1 construct: gene NDUFV1; native purified mitochondrial complex I; with NADH dehydrogenase [ubiquinone] flavoprotein 2, mitochondrial; NADH-ubiquinone oxidoreductase 75 kDa subunit, mitochondrial

[1] = target: T2, Eg-CI (ubiquinone / rotenone site); assay: NADH-DQ oxidoreductase, NADH oxidation at […] nm; type: biochemical, Euglena gracilis; details: 10 nM Eg-CI, 200 μM decylubiquinone, 250 μM NADH, pH 7.4, 0.1% digitonin, room temperature
T2 construct: gene ND1; native mitochondrial complex I, LMNG-solubilised, 59 subunits (16 core), ion exchange and SEC; cells catalogue GY-D32; with NADH dehydrogenase [ubiquinone] flavoprotein 1, mitochondrial; NADH-ubiquinone oxidoreductase 75 kDa subunit, N-terminal part; NADH-ubiquinone oxidoreductase 75 kDa subunit, C-terminal part

T1 sequence (A0A4X1SZP7 21-464): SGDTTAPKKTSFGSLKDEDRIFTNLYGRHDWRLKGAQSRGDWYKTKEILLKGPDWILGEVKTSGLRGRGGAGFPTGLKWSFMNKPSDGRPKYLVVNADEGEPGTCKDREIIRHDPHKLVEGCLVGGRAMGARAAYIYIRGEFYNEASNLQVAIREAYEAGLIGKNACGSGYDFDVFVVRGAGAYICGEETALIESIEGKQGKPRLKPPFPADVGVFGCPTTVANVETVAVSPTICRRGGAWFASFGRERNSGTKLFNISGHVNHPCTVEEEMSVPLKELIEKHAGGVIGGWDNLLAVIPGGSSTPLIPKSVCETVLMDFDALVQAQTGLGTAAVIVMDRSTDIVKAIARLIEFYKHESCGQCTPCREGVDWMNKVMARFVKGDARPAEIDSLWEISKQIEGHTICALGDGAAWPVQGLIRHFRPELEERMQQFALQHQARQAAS

| Compound | NADH oxidation at 340 nm (S. scrofa CI) | IC50 [1] [µM] |
| --- | --- | --- |
| NC(=O)C1=CN([C@@H]2O[C@H](COP(=O)(O)OP(=O)(O)OC[C@H]3O[C@@H](n4cnc5c(N)ncnc54)[C@H](O)[C@@H]3O)[C@@H](O)[C@H]2O)C=CC1 [NADH] | Thermal deactivation assays of S. scrofa CI (a) |  |
| C=C(C)[C@H]1Cc2c(ccc3c2O[C@@H]2COc4cc(OC)c(OC)cc4[C@@H]2C3=O)O1 [rotenone] |  | ~11 |
